Like-named read-outs stand apart in the source and are kept apart here. Square brackets hold non-standard residues; d marks the D form. Peptide text beside a SMILES is read from it. Ava = NCCCCC(=O)O; Mpa = O=C(O)CCS
Legend:
[1] = biological target: thrombospondin binding to heparin; experiment: Inhibition of 125I-thrombospondin binding to immobilized heparin-BSA; design: species or system human; conditions: for inhibition of thrombospondin binding to heparin, in words: free peptide
Method: (§1) The peptides were tested as inhibitors of laminin, thrombospondin or apolipoprotein E binding to a heparin-bovine serum albumen conjugate or to a sulfatide in a solid phase assay essentially following the procedure described in Zabrenetzky et al., Cancer Res., Vol. 50, pages 5937-5942 (1990). Sulfatide (0.2 μg/well for thrombospondin binding, 0.6 μg/well for laminin binding) was immobilized in a mixture of 50 ng of phosphatidyl choline, and 30 ng of cholesterol on polyvinyl chloride microtiter plates. Heparin-BSA (0.2 μg/well) was absorbed onto polyvinyl chloride microtiter plate wells by incubation of 50 μl of Dulbecco's PBS for 2 h at 37°. The wells were emptied and filled with 50 mM tris, pH 7.8 containing 150 mM NaCl, 1 mM CaCl2, 0.025% NaN3, and 1% BSA. After 30 minutes, the wells were emptied and 30 μl of various concentrations of potential inhibitory peptides diluted in the same buffer or buffer alone and 30 μl of ^125 I-labeled laminin, thrombospondin or apolipoprotein E (0.2 μg/ml) were added to each well. After 3 hours at 4°, the wells were washed 6 times with 0.15M NaCl, cut from the plate and the bound radioactivity counted. FIGS. 1A-B and 2A-B show the level of thrombospondin binding to sulfatide and heparin-BSA, respectively, in the presence of increasing concetrations of the peptides listed. FIGS. 3 and 4A-B show the level of laminin binding to sulfatide and heparin-BSA, respectively, in the presence of increasing concentrations of the listed peptides.
Microtiter plate wells were coated with heparin-BSA. Heparin-BSA (0.2 μg/well) was adsorbed by incubation in 50 μl of Dulbecco's PBS for 2 h at 370. The wells were emptied, filled with tris-BSA, and incubated for 30 to 60 minutes. The buffer was removed, and labelled thrombospondin was added and incubated in the wells for 3 h at 40. The wells were emptied and washed 4 times with saline. The bottoms of the wells were cut from the plate and counted to quantify thrombospondin binding. Inhibition of thrombospondin binding was determined using peptides diluted in 30 μl of 50 mM tris buffer, pH 7.8, containing 110 mM NaCl, 1 mM CaCl2, 0.025% NaN3, and 1% BSA or buffer alone and 30 μl of ^125 I-labeled TSP (0.2 μg/ml).

[2] = biological target: basic fibroblast growth factor (FGF-2) binding to heparin; experiment: Inhibition of 125I-bFGF binding to heparin-BSA conjugate; conditions: retro-inverso peptides; read-out: IC50 for Inhibition of Binding
Method: Binding of ^125 I-bFGF to heparin was determined using an immobilized heparin-BSA conjugate as previously described (Guo, et al. (1992) Proc. Nat'l Acad. Sci. 89:3040-3044). ^125 I-bFGF, prepared as described by Neufeld, et al, (1985), J. Biol. Chem. 260:13860-13868, was added described above, and incubated for 2 hours at 25° C. Bound radioactivity was determined after washing and cutting the wells from the plate. FIGS. 40A, B and C show the inhibition of ^125 I-bFGF binding to heparin by a number of TSP peptide analogs.

[3] = biological target: thrombospondin binding to sulfatide; experiment: Inhibition of 125I-thrombospondin binding to sulfatide; design: species or system human; conditions: for IC50: Table 1, free peptide
Method: as §1

[4] = biological target: laminin binding to heparin; experiment: Inhibition of 125I-laminin binding to heparin-BSA; design: species or system mouse; conditions: Table 2, free peptide
Method: as §1

[5] = biological target: laminin binding to sulfatide; experiment: Inhibition of 125I-laminin binding to sulfatide; design: species or system mouse; conditions: Table 2, free peptide
Method: as §1

[6] = retro-inverso peptides, free, read-out: IC50 Inhibitory Activity, Free Peptide
[7] = Table 1, free peptide, read-out: IC50 Heparin Binding, inhibition of 125I-thrombospondin binding

IC50 [1, 6] [µM]	IC50 [2] [µM]	IC50 [1, 7] [µM]	IC50 [3] [µM]	IC50 [4] [µM]	IC50 [5] [µM]	inhibition of thrombospondin binding to heparin, in words [1]	fold less active than CSVTCG ([3]; thrombospondin binding to sulfatide) [fold]	SMILES
0.035	0.28	–	–	–	–	–	–	C[C@@H](NC(=O)CCS)C(=O)N[C@H](C)C(=O)N[C@H](CO)C(=O)N[C@H](Cc1c[nH]c2ccccc12)C(=O)N[C@H](Cc1c[nH]cn1)C(=O)N[C@H](CO)C(=O)N[C@H](Cc1c[nH]c2ccccc12)C(=O)NCC(=O)N[C@H](C)C(=O)N[C@H](CCC(N)=O)C(=O)N[C@H](CCCCN)C(=O)N[C@H](C)C(=O)N[C@H](CCCNC(=N)N)C(=O)N[C@H](CCCCN)C(N)=O [Peptide 525, ri-amKRAKQAGWSHWSAAtc] ([Mpa][dA][dA][dS][dW][dH][dS][dW]G[dA][dQ][dK][dA][dR][dK]-NH2)
0.15	1.9	–	–	–	–	–	–	CC(=O)N[C@H](CS)C(=O)N[C@H](CO)C(=O)N[C@H](CO)C(=O)N[C@H](Cc1c[nH]c2ccccc12)C(=O)N1CCC[C@@H]1C(=O)N[C@H](CO)C(=O)N[C@H](Cc1c[nH]c2ccccc12)C(=O)N[C@H](Cc1c[nH]cn1)C(=O)N[C@H](CO)C(=O)N[C@H](Cc1c[nH]c2ccccc12)C(=O)NCC(=O)NCC(=O)N[C@H](C)C(=O)N[C@H](C)C(=O)N[C@H](CCCCN)C(=O)N[C@H](C)C(=O)N[C@H](CCCNC(=N)N)C(=O)N[C@H](CCCCN)C(N)=O [Peptide 473, ri-amKRAKAAGGWSHWSPWSSCac] (Ac-[dC][dS][dS][dW][dP][dS][dW][dH][dS][dW]GG[dA][dA][dK][dA][dR][dK]-NH2)
–	–	> 200	> 200	> 200	> 200	–	–	CC(C)[C@H](NC(=O)[C@H](CO)NC(=O)[C@@H](N)CO)C(=O)N[C@H](C(=O)O)[C@@H](C)O [Peptide 235, SSVT] (H-SSVT-OH)
–	0.1	–	–	–	–	–	–	CC(=O)N[C@H](C)C(=O)N[C@H](C)C(=O)N[C@H](Cc1c[nH]c2ccccc12)C(=O)N[C@H](Cc1c[nH]cn1)C(=O)N[C@H](CO)C(=O)N[C@H](Cc1c[nH]c2ccccc12)C(=O)NCC(=O)N[C@H](C)C(=O)N[C@H](CCC(N)=O)C(=O)N[C@H](CCCCN)C(=O)N[C@H](C)C(=O)N[C@H](CCCCN)C(=O)N[C@H](CCCCN)C(N)=O [Peptide 537, ri-amKKAKQAGWSHWAAac] (Ac-[dA][dA][dW][dH][dS][dW]G[dA][dQ][dK][dA][dK][dK]-NH2)
–	0.95	–	–	–	–	–	–	CC(=O)N[C@H](C)C(=O)N[C@H](C)C(=O)N[C@H](Cc1c[nH]c2ccccc12)C(=O)N[C@H](Cc1c[nH]cn1)C(=O)N[C@H](CO)C(=O)N[C@H](Cc1c[nH]c2ccccc12)C(=O)NCC(=O)N[C@H](C)C(=O)N[C@H](CCC(N)=O)C(=O)N[C@H](CCCNC(=N)N)C(=O)N[C@H](C)C(=O)N[C@H](CCCNC(=N)N)C(=O)N[C@H](CCCCN)C(N)=O [Peptide 536, ri-amKRARQAGWSHWAAac] (Ac-[dA][dA][dW][dH][dS][dW]G[dA][dQ][dR][dA][dR][dK]-NH2)
0.046	–	–	–	–	–	–	–	C[C@@H](NC(=O)CCS)C(=O)N[C@H](C)C(=O)N[C@H](Cc1c[nH]c2ccccc12)C(=O)N[C@H](Cc1c[nH]cn1)C(=O)N[C@H](CO)C(=O)N[C@H](Cc1c[nH]c2ccccc12)C(=O)NCCCCC(=O)N[C@H](C)C(=O)N[C@H](CCC(N)=O)C(=O)N[C@H](CCCCN)C(=O)N[C@H](C)C(=O)N[C@H](CCCNC(=N)N)C(=O)N[C@H](CCCCN)C(N)=O [ri-amKRAKQUWSHWAAtp] ([Mpa][dA][dA][dW][dH][dS][dW][Ava][dA][dQ][dK][dA][dR][dK]-NH2)
–	–	> 200	> 200	> 200	> 200	inactive	–	CC(C)[C@H](NC(=O)[C@H](CO)NC(=O)[C@@H](N)CS)C(=O)N[C@H](C(=O)O)[C@@H](C)O [Peptide 234, CSVT] (H-CSVT-OH)
–	–	58	30	100	85	very weak inhibitor	2	CC(C)[C@H](NC(=O)[C@H](CO)NC(=O)[C@@H](N)CO)C(=O)N[C@H](C(=O)N[C@@H](CS)C(=O)NCC(=O)O)[C@@H](C)O [Peptide 237, SSVTCG] (H-SSVTCG-OH)
–	–	> 200	> 200	> 200	> 200	–	–	CC[C@H](C)[C@H](NC(=O)[C@@H](NC(=O)CNC(=O)[C@H](CC(=O)O)NC(=O)CNC(=O)[C@H](CS)NC(=O)[C@@H](NC(=O)[C@@H](N)C(C)C)[C@@H](C)O)C(C)C)C(=O)N[C@H](C(=O)N[C@@H](CCCNC(=N)N)C(=O)O)[C@@H](C)O [Peptide 205, VTCGDGVITR] (H-VTCGDGVITR-OH)
–	–	> 200	> 200	> 200	> 200	inactive	–	CC(C)[C@H](N)C(=O)N[C@H](C(=O)N[C@@H](CS)C(=O)NCC(=O)O)[C@@H](C)O [Peptide 203, VTCG] (H-VTCG-OH)
–	–	> 200	> 200	~200	> 200	inactive	–	CC(C)C[C@H](NC(=O)[C@H](CCCNC(=N)N)NC(=O)[C@H](CO)NC(=O)[C@H](CCCNC(=N)N)NC(=O)[C@H](CCCCN)NC(=O)[C@H](CCC(N)=O)NC(=O)[C@@H](NC(=O)CNC(=O)CNC(=O)CNC(=O)[C@H](CS)NC(=O)[C@@H](NC(=O)[C@@H](N)C(C)C)[C@@H](C)O)C(C)C)C(=O)O [Peptide 245, VTCGGGVQKRSRL] (H-VTCGGGVQKRSRL-OH)
–	0.37	–	–	–	–	–	–	CC(=O)N[C@H](C)C(=O)N[C@H](C)C(=O)N[C@H](Cc1c[nH]c2ccccc12)C(=O)N[C@H](Cc1c[nH]cn1)C(=O)N[C@H](CO)C(=O)N[C@H](Cc1c[nH]c2ccccc12)C(=O)NCC(=O)N[C@H](C)C(=O)N[C@H](CCC(N)=O)C(=O)N[C@H](CCCCN)C(=O)N[C@H](C)C(=O)N[C@H](CCCNC(=N)N)C(=O)N[C@H](CCCCN)C(N)=O [Peptide 529, ri-amKRAKQAGWSHWAAac] (Ac-[dA][dA][dW][dH][dS][dW]G[dA][dQ][dK][dA][dR][dK]-NH2)
–	–	> 200	> 200	> 200	> 200	–	–	CC(C)[C@H](NC(=O)[C@H](CO)NC(=O)[C@H](C)N)C(=O)N[C@H](C(=O)O)[C@@H](C)O [Peptide 236, ASVT] (H-ASVT-OH)
–	0.65	–	–	–	–	–	–	CC(=O)N[C@H](C)C(=O)N[C@H](C)C(=O)N[C@H](Cc1c[nH]c2ccccc12)C(=O)N[C@H](Cc1c[nH]cn1)C(=O)N[C@H](CO)C(=O)N[C@H](Cc1c[nH]c2ccccc12)C(=O)NCC(=O)N[C@H](C)C(=O)N[C@H](CCC(N)=O)C(=O)N[C@H](CCCCN)C(=O)N[C@H](Cc1ccccc1)C(=O)N[C@H](CCCNC(=N)N)C(=O)N[C@H](CCCCN)C(N)=O [Peptide 530, ri-amKRFKQAGWSHWAAac] (Ac-[dA][dA][dW][dH][dS][dW]G[dA][dQ][dK][dF][dR][dK]-NH2)
–	–	> 200	> 200	> 200	> 200	–	–	CC[C@H](C)[C@H](NC(=O)CNC(=O)[C@H](CC(N)=O)NC(=O)CNC(=O)[C@H](CS)NC(=O)[C@H](CO)NC(=O)[C@@H](N)[C@@H](C)O)C(=O)N[C@@H](CCC(N)=O)C(=O)N[C@@H](CCC(N)=O)C(=O)N[C@@H](CCCNC(=N)N)C(=O)O [Peptide 206, TSCGNGIQQR] (H-TSCGNGIQQR-OH)
–	–	> 200	> 200	> 200	> 200	–	–	CC(C)[C@H](N)C(=O)N[C@H](C(=O)N[C@@H](CS)C(=O)NCC(=O)NCC(=O)NCC(=O)N[C@H](C(=O)N[C@@H](CCC(N)=O)C(=O)N[C@@H](CCCCN)C(=O)N[C@@H](CCCNC(=N)N)C(=O)O)C(C)C)[C@@H](C)O [Peptide 204, VTCGGGVQKR] (H-VTCGGGVQKR-OH)

SMILES	IC50 [1, 6] [µM]	IC50 [2] [µM]	IC50 [1, 7] [µM]	IC50 [3] [µM]	IC50 [4] [µM]	IC50 [5] [µM]	inhibition of thrombospondin binding to heparin, in words [1]	fold less active than CSVTCG ([3]; thrombospondin binding to sulfatide) [fold]
CC(C)[C@H](NC(=O)[C@H](CO)NC(=O)[C@H](CS)NC(=O)[C@H](CO)NC(=O)[C@@H](N)CO)C(=O)N[C@H](C(=O)O)[C@@H](C)O [Peptide 238, SSCSVT] (H-SSCSVT-OH)	–	–	85	> 100	> 200	> 200	weak inhibition of thrombospondin binding	–
